The record followed here is US9849435B2, “Maleic anhydride polymer-stabilized microcapsules” (Firmenich SA, priority 2013, dated 2017).

Data set [1] in a line: Oil properties: Log P. In kind it is physicochemical. The following applies: oil ingredient.
Data set [2] in a line: Oil properties: volatility. The following applies: oil ingredient. It is filed as physicochemical.

As usually defined, the Log P is a log measure of how a compound divides between an organic and an aqueous phase. A high value points to a more lipophilic compound. Consider `C/C=C/C(=O)C1C(C)C=CCC1(C)C` (centres unmarked) [Delta-Damascone], for which the “Log P” value in data set [1] amounted to 4.16. In data set [2], this compound had a Volatility of 371 µg/L.
The corresponding values for `C=CC(C)CCCC(C)(C)O` (centres unmarked) [Dihydromycenol] are 3.47 and 1391 µg/L.
The matching figures for `C=C(C)[C@H]1CC=C(C)CC1` [Limonene]: 4.38 and 14183 µg/L.
In general, logP refers to a log measure of how a compound divides between an organic and an aqueous phase. Lower therefore signals a more hydrophilic compound. For `OCCc1ccccc1` [Phenylethyl Alcohol], the logP in data set [1] was found to be 1.52.
On to `CC(=O)/C=C/C1=C(C)CCCC1(C)C` [β-Ionone], for which, in data set [1], the “Log P” value turned out to be 3.012.
